Experimental data taken from patent EP4230620A1, “SUBSTITUTED N-AMINO-N-BENZOIC ACID URACILS, THEIR SALTS AND USE OF SAID COMPOUNDS AS HERBICIDAL AGENTS” (Bayer Aktiengesellschaft, priority 2022, dated 2023).

Assays:
Type in all cases: in vivo
Abutilon theophrasti = experiment: Post-emergence herbicidal action in greenhouse against ABUTH; details: post-emergence spray, 600 l/ha water, visual rating after ca. 3 weeks vs untreated controls, 100% = plants dead, 0% = like control plants
Source text: (§1) Biologische Beispiele: • Die folgenden Abkürzungen werden für die in den folgenden Tabellen aufgeführten Kultur- und Schadpflanzen verwendet: ABUTH: Abutilon theophrasti ALOMY: Alopecurus myosuroides AMARE: Amaranthus retroflexus BRSNS: Brassica napus DIGSA: Digitaria sanguinalis ECHCG: Echinochloa crus-galli GLXMA: Glycine max KCHSC: Kochia scoparia LOLRI: Lolium rigidum MATIN: Matricaria inodora ORYZA: Oryza sativa PHPBU: Pharbitis purpurea POLCO: Polygonum convolvulus SETVI: Setaria viridis VERPE: Veronica persica VIOTR: Viola tricolor TRZAS: Triticum aestivum ZEAMX: Zea mays • A. Herbizide Wirkung im Nachauflauf
(§2) Samen von mono- bzw. dikotylen Unkrautpflanzen wurden in Kunststoff- oder Holzfasertöpfen in sandigem Lehmboden ausgelegt, mit Erde abgedeckt und im Gewächshaus unter kontrollierten Wachstumsbedingungen angezogen. 2 bis 3 Wochen nach der Aussaat wurden die Versuchspflanzen im Einblattstadium behandelt. Die in Form von benetzbaren Pulvern (WP) oder als Emulsionskonzentrate (EC) formulierten erfindungsgemäßen Verbindungen wurden dann als wässrige Suspension bzw. Emulsion unter Zusatz von 0,5% Additiv mit einer Wasseraufwandmenge von umgerechnet 600 l/ha auf die grünen Pflanzenteile gesprüht. Nach ca. 3 Wochen Standzeit der Versuchspflanzen im Gewächshaus, unter optimalen Wachstumsbedingungen, wurde die Wirkung der Präparate visuell im Vergleich zu unbehandelten Kontrollen bonitiert. Beispielsweise bedeutet 100% Wirkung = Pflanzen sind abgestorben, 0% Wirkung = wie Kontrollpflanzen.
(§3) In den nachstehenden Tabellen A1 bis A11 sind die Wirkungen ausgewählter Verbindungen der allgemeinen Formel (I) gemäß der Tabelle 1 auf verschiedene Schadpflanzen und einer Aufwandmenge entsprechend 20 g/ha und niedriger, die gemäß zuvor genannter Versuchsvorschrift erhalten wurden, dargestellt. Tabelle A1a: Nachauflaufwirkung bei 1,25 g/ha gegen ABUTH in %

Alopecurus myosuroides = experiment: Post-emergence herbicidal action in greenhouse against ALOMY; details: post-emergence spray, 600 l/ha water, visual rating after ca. 3 weeks vs untreated controls, 100% = plants dead, 0% = like control plants
Source text: as §1, §2, §3

Amaranthus retroflexus = experiment: Post-emergence herbicidal action in greenhouse against AMARE; details: post-emergence spray, 600 l/ha water, visual rating after ca. 3 weeks vs untreated controls, 100% = plants dead, 0% = like control plants
Source text: as §1, §2, §3

Digitaria sanguinalis = experiment: Post-emergence herbicidal action in greenhouse against DIGSA; details: visual rating after ca. 3 weeks
Source text: as §1, §2, §3

Lolium rigidum = experiment: Post-emergence herbicidal action in greenhouse against LOLRI; details: 20 g/ha; post-emergence spray, 600 l/ha water; visual rating after ca. 3 weeks vs untreated controls; 100% = plants dead, 0% = like control plants
Source text: as §1, §2, §3

Matricaria inodora = experiment: Post-emergence herbicidal action in greenhouse against MATIN; details: visual rating after ca. 3 weeks
Source text: as §1, §2, §3

Pharbitis purpurea = experiment: Post-emergence herbicidal action in greenhouse against PHBPU; details: visual rating after ca. 3 weeks
Source text: as §1, §2, §3

Polygonum convolvulus = experiment: Post-emergence herbicidal action in greenhouse against POLCO; details: visual rating after ca. 3 weeks
Source text: as §1, §2, §3

Setaria viridis = experiment: Post-emergence herbicidal action in greenhouse against SETVI; details: visual rating after ca. 3 weeks
Source text: as §1, §2, §3

Veronica persica = experiment: Post-emergence herbicidal action in greenhouse against VERPE; details: visual rating after ca. 3 weeks
Source text: as §1, §2, §3

Viola tricolor = experiment: Post-emergence herbicidal action in greenhouse against VIOTR; details: visual rating after ca. 3 weeks
Source text: as §1, §2, §3

Zea mays = experiment: Post-emergence action on crop plants in greenhouse, ZEAMX; details: crop plant, 100% = plants dead, 0% = like control plants
Source text: as §1
as §2, with “Kulturpflanzen” for “Unkrautpflanzen”
as §3, with “B1” for “A1”, “B4” for “A11”, “Kulturpflanzen” for “Schadpflanzen”, “B1a:” for “A1a:”, “ZEAMX” for “ABUTH”

Triticum aestivum = experiment: Post-emergence action on crop plants in greenhouse, TRZAS; details: crop plant, visual rating after ca. 3 weeks, 100% = plants dead, 0% = like control plants
Source text: as §1
as §2, with “Kulturpflanzen” for “Unkrautpflanzen”
as §3, with “B1” for “A1”, “B4” for “A11”, “Kulturpflanzen” for “Schadpflanzen”, “B1a:” for “A1a:”, “ZEAMX” for “ABUTH”

Oryza sativa = experiment: Post-emergence action on crop plants in greenhouse, ORYZA; details: 1,25 g/ha, crop plant, visual rating after ca. 3 weeks, 100% = plants dead, 0% = like control plants
Source text: as §1
as §2, with “Kulturpflanzen” for “Unkrautpflanzen”
as §3, with “B1” for “A1”, “B4” for “A11”, “Kulturpflanzen” for “Schadpflanzen”, “B1a:” for “A1a:”, “ZEAMX” for “ABUTH”

[1] = 1,25 g/ha, post-emergence, visual rating after ca. 3 weeks

| SMILES | Nachauflaufwirkung gegen ABUTH (Abutilon theophrasti; 1,25 g/ha) [%] | Nachauflaufwirkung gegen ABUTH (Abutilon theophrasti; 5 g/ha) [%] | Nachauflaufwirkung gegen ABUTH (Abutilon theophrasti; 20 g/ha) [%] | Nachauflaufwirkung gegen ALOMY (Alopecurus myosuroides; 20 g/ha) [%] | Nachauflaufwirkung gegen AMARE (Amaranthus retroflexus; 1,25 g/ha) [%] | Nachauflaufwirkung gegen AMARE (Amaranthus retroflexus; 5 g/ha) [%] | Nachauflaufwirkung gegen AMARE (Amaranthus retroflexus; 20 g/ha) [%] | Nachauflaufwirkung gegen DIGSA (Digitaria sanguinalis; 5 g/ha) [%] | Nachauflaufwirkung gegen DIGSA (Digitaria sanguinalis; 20 g/ha) [%] | Nachauflaufwirkung gegen MATIN (Matricaria inodora; 5 g/ha) [%] | Nachauflaufwirkung gegen MATIN (Matricaria inodora; 20 g/ha) [%] | Nachauflaufwirkung gegen PHBPU (Pharbitis purpurea; 1,25 g/ha) [%] | Nachauflaufwirkung gegen PHBPU (Pharbitis purpurea; 5 g/ha) [%] | Nachauflaufwirkung gegen PHBPU (Pharbitis purpurea; 20 g/ha) [%] | Nachauflaufwirkung gegen POLCO (Polygonum convolvulus; 20 g/ha) [%] | Nachauflaufwirkung gegen SETVI (Setaria viridis; 1,25 g/ha) [%] | Nachauflaufwirkung gegen SETVI (Setaria viridis; 5 g/ha) [%] | Nachauflaufwirkung gegen SETVI (Setaria viridis; 20 g/ha) [%] | Nachauflaufwirkung gegen VERPE (Veronica persica; 5 g/ha) [%] | Nachauflaufwirkung gegen VERPE (Veronica persica; 20 g/ha) [%] | also measured |
| --- | --- | --- | --- | --- | --- | --- | --- | --- | --- | --- | --- | --- | --- | --- | --- | --- | --- | --- | --- | --- | --- |
| COCCOC(=O)C(C)(C)OC(=O)c1cc(-n2c(=O)cc(C(F)(F)F)n(N)c2=O)c(F)cc1Cl [I.1-1] | 90 | 100 | 100 | 90 | 100 | 100 | 100 | 100 | 100 | 100 | 100 | 100 | 100 | 100 | 100 | 100 | 100 | 100 | 100 | 100 | Nachauflaufwirkung gegen ALOMY (Alopecurus myosuroides; 5 g/ha): 80%; Nachauflaufwirkung gegen LOLRI (Lolium rigidum): 90%; Nachauflaufwirkung gegen POLCO (Polygonum convolvulus; 5 g/ha): 100%; Nachauflaufwirkung gegen VERPE (Veronica persica; 1,25 g/ha): 100%; Nachauflaufwirkung gegen VIOTR (Viola tricolor; 1,25 g/ha): 80%; Nachauflaufwirkung gegen VIOTR (Viola tricolor; 5 g/ha): 100%; Nachauflaufwirkung gegen VIOTR (Viola tricolor; 20 g/ha): 100%; Nachauflaufwirkung gegen ZEAMX (Zea mays; [1]): 0%; Nachauflaufwirkung gegen TRZAS (Triticum aestivum; 1,25 g/ha): 0%; Nachauflaufwirkung gegen TRZAS (Triticum aestivum; 5 g/ha): 0%; Nachauflaufwirkung gegen ORYZA (Oryza sativa): 0% |
| CC(C)(OC(=O)c1cc(-n2c(=O)cc(C(F)(F)F)n(N)c2=O)c(F)cc1Cl)C(=O)OCC#N [I.1-176, 1-(Cyanmethoxy)-2-methyl-1-oxopropan-2-yl-5-[3-amino-2,6-dioxo-4-(trifluormethyl)-3,6-dihydropyrimidin-1(2H)-yl]-2-chlor-4-fluorbenzoat] | 100 | 100 | 100 | 100 | 100 | 100 | 100 | 100 | 100 | 100 | 100 | 90 | 100 | 100 | 100 | 100 | 100 | 100 | 100 | 100 | Nachauflaufwirkung gegen LOLRI (Lolium rigidum): 80%; Nachauflaufwirkung gegen POLCO (Polygonum convolvulus; 5 g/ha): 100%; Nachauflaufwirkung gegen VERPE (Veronica persica; 1,25 g/ha): 80%; Nachauflaufwirkung gegen VIOTR (Viola tricolor; 1,25 g/ha): 90%; Nachauflaufwirkung gegen VIOTR (Viola tricolor; 5 g/ha): 100%; Nachauflaufwirkung gegen VIOTR (Viola tricolor; 20 g/ha): 100%; Nachauflaufwirkung gegen TRZAS (Triticum aestivum; 1,25 g/ha): 0%; Nachauflaufwirkung gegen TRZAS (Triticum aestivum; 5 g/ha): 20%; Nachauflaufwirkung gegen ORYZA (Oryza sativa): 20% |
| CC(C)(OC(=O)c1cc(-n2c(=O)cc(C(F)(F)F)n(N)c2=O)c(F)cc1Cl)C(=O)OCc1ccccn1 [I.1-286] | 90 | 100 | 100 | 90 | 100 | 100 | 100 | 100 | 100 | 90 | 100 | 100 | 100 | 100 | 100 | 100 | 100 | 100 | 100 | 100 | Nachauflaufwirkung gegen LOLRI (Lolium rigidum): 90%; Nachauflaufwirkung gegen POLCO (Polygonum convolvulus; 5 g/ha): 100%; Nachauflaufwirkung gegen VERPE (Veronica persica; 1,25 g/ha): 100%; Nachauflaufwirkung gegen VIOTR (Viola tricolor; 1,25 g/ha): 90%; Nachauflaufwirkung gegen VIOTR (Viola tricolor; 5 g/ha): 100%; Nachauflaufwirkung gegen VIOTR (Viola tricolor; 20 g/ha): 100%; Nachauflaufwirkung gegen ZEAMX (Zea mays; [1]): 20%; Nachauflaufwirkung gegen TRZAS (Triticum aestivum; 1,25 g/ha): 0%; Nachauflaufwirkung gegen TRZAS (Triticum aestivum; 5 g/ha): 10%; Nachauflaufwirkung gegen ORYZA (Oryza sativa): 0% |
| CC(C)=NOC(=O)C(C)(C)OC(=O)c1cc(-n2c(=O)cc(C(F)(F)F)n(N)c2=O)c(F)cc1Cl [I.1-491] | 100 | 100 | 100 | 100 | 100 | 100 | 100 | 100 | 100 | 100 | 100 | 100 | 100 | 100 | 100 | 100 | 100 | 100 | 100 | 100 | Nachauflaufwirkung gegen LOLRI (Lolium rigidum): 80%; Nachauflaufwirkung gegen VIOTR (Viola tricolor; 1,25 g/ha): 80%; Nachauflaufwirkung gegen VIOTR (Viola tricolor; 5 g/ha): 100%; Nachauflaufwirkung gegen VIOTR (Viola tricolor; 20 g/ha): 100%; Nachauflaufwirkung gegen ZEAMX (Zea mays; [1]): 20%; Nachauflaufwirkung gegen TRZAS (Triticum aestivum; 1,25 g/ha): 0%; Nachauflaufwirkung gegen TRZAS (Triticum aestivum; 5 g/ha): 0%; Nachauflaufwirkung gegen ORYZA (Oryza sativa): 0% |
| C=CCOC(=O)C(C)(C)OC(=O)c1cc(-n2c(=O)cc(C(F)(F)F)n(N)c2=O)ccc1Cl [I.2-471] | 90 | 100 | 100 | 80 | 100 | 100 | 100 | 100 | 100 | 90 | 100 | 100 | 100 | 100 | 100 | 100 | 100 | 100 | 100 | 100 | Nachauflaufwirkung gegen VERPE (Veronica persica; 1,25 g/ha): 100%; Nachauflaufwirkung gegen VIOTR (Viola tricolor; 1,25 g/ha): 100%; Nachauflaufwirkung gegen VIOTR (Viola tricolor; 5 g/ha): 100%; Nachauflaufwirkung gegen VIOTR (Viola tricolor; 20 g/ha): 100%; Nachauflaufwirkung gegen ZEAMX (Zea mays; [1]): 20%; Nachauflaufwirkung gegen ZEAMX (Zea mays; 5 g/ha, post-emergence spray, 600 l/ha water, visual rating after ca. 3 weeks vs untreated controls): 20%; Nachauflaufwirkung gegen TRZAS (Triticum aestivum; 1,25 g/ha): 0%; Nachauflaufwirkung gegen TRZAS (Triticum aestivum; 5 g/ha): 0%; Nachauflaufwirkung gegen TRZAS (Triticum aestivum; 20 g/ha): 10%; Nachauflaufwirkung gegen ORYZA (Oryza sativa): 0% |
